Experiments:
Assay in all cases: Test 1A glasshouse assay, post-emergence herbicidal activity
Type in all cases: in vivo
Lolium perenne (LOLPE) = conditions: Lolium perenne, 312 h, application rate 250 g/ha, 13 days after application, visual (100%=total damage; 0%=no damage), read-out: Post-emergence Herbicidal Activity (% Phytotoxicity) LOLPE
Experimental: (§1) Seeds of a variety of test species were sown in standard soil in pots. After cultivation for one day (pre-emergence) or after 8 days cultivation (post-emergence) under controlled conditions in a glasshouse (at 24/16° C., day/night; 14 hours light; 65% humidity), the plants were sprayed with an aqueous spray solution derived from the formulation of the technical active ingredient in acetone/water (50:50) solution containing 0.5% Tween 20 (polyoxyethelyene sorbitan monolaurate, CAS RN 9005-64-5). The test plants were then grown under controlled conditions in a glasshouse (at 24/16° C., day/night; 14 hours light; 65% humidity) and watered twice daily. 13 days after application of the test herbicide, for pre- and post-emergence, the test was evaluated visually for percentage phytotoxicity to the plant (where 100%=total damage to plant; 0%=no damage to plant).
(§2) Lolium perenne (LOLPE), Alopecurus myosuroides (ALOMY), Echinochloa crus-galli (ECHCG), and Avena fatua (AVEFA); these are all grassy monocotyledonous weeds.

[1] = tested on: Echinochloa crus-galli (ECHCG); conditions: Echinochloa crus-galli, 312 h, application rate 250 g/ha, 13 days after application, visual (100%=total damage; 0%=no damage), read-out: Post-emergence Herbicidal Activity (% Phytotoxicity) ECHCG
Experimental: as §1, §2

Avena fatua (AVEFA) = conditions: Avena fatua, 312 h, application rate 250 g/ha, 13 days after application, visual (100%=total damage; 0%=no damage), read-out: Post-emergence Herbicidal Activity (% Phytotoxicity) AVEFA
Experimental: as §1, §2

[2] = tested on: Alopecurus myosuroides (ALOMY); conditions: Alopecurus myosuroides, 312 h, application rate 250 g/ha, 13 days after application, visual (100%=total damage; 0%=no damage), read-out: Post-emergence Herbicidal Activity (% Phytotoxicity) ALOMY
Experimental: as §1, §2

| SMILES | pest or weed control at 250 g/ha (Lolium perenne (LOLPE)) [%] | pest or weed control at 250 g/ha [1] [%] | pest or weed control at 250 g/ha (Avena fatua (AVEFA)) [%] | pest or weed control at 250 g/ha [2] [%] |
| --- | --- | --- | --- | --- |
| Cc1cc(-c2cc(F)cc(F)c2)cc(C)c1C1C(=O)CC(CCNC(=O)c2ccccn2)C1=O (stereo not shown) [Compound A109] | 100 | 100 | 100 | 100 |
| Cc1cc(-c2ccc(F)c(Cl)c2)cc(C)c1C1C(=O)CC(CCNC(=O)c2ccccn2)C1=O (stereo not shown) [Compound A110] | 100 | 100 | 100 | 90 |
| Cc1cc(-c2cccc(Cl)c2)cc(C)c1C1C(=O)CC(CCNC(=O)c2ccccn2)C1=O (stereo not shown) [Compound A111, N-[2-[3-[4-(3-chlorophenyl)-2,6-dimethyl-phenyl]-2,4-dioxo-cyclopentyl]ethyl]pyridine-2-carboxamide] | 100 | 100 | 100 | 100 |
| CC#Cc1cc(C)c(C2C(=O)CC(CCNC(=O)c3cccc(F)n3)C2=O)c(C)c1 (stereo not shown) [Compound A114] | 100 | 100 | 100 | 100 |
| CC#Cc1cc(C)c(C2C(=O)CC(CCNC(=O)C(C)(C)C)C2=O)c(C)c1 (stereo not shown) [Compound A115] | 100 | 100 | 100 | 100 |
| CC#Cc1cc(C)c(C2C(=O)CC(CCNC(=O)c3ccc(F)cc3)C2=O)c(C)c1 (stereo not shown) [Compound A116] | 100 | 100 | 100 | 90 |
| Cc1cc(-c2ccc(F)cn2)cc(C)c1C1C(=O)CC(CCNC(=O)c2ccccn2)C1=O (stereo not shown) [Compound A117] | 100 | 100 | 100 | 100 |
| Cc1cc(C)c(C2C(=O)CC(CCNC(=O)c3ccc(Cl)cn3)C2=O)c(C)c1 (stereo not shown) [Compound A118] | 100 | 100 | 100 | 100 |
| Cc1ccnc(C(=O)NCCC2CC(=O)C(c3c(C)cc(C)cc3C)C2=O)c1 (stereo not shown) [Compound A119] | 90 | 100 | 90 | 100 |
| Cc1cc(C)c(C2C(=O)CC(CCNC(=O)c3cc(Br)ccn3)C2=O)c(C)c1 (stereo not shown) [Compound A121] | 100 | 100 | 90 | 90 |
| COc1cc(C)c(C2C(=O)CC(CCNC(=O)c3ccccn3)C2=O)c(C)c1 (stereo not shown) [Compound A122] | 100 | 100 | 90 | 100 |
| Cc1cccc(C)c1C1C(=O)CC(CCNC(=O)c2ccccn2)C1=O (stereo not shown) [Compound A123] | 100 | 90 | 100 | 100 |
| Cc1cc(Cl)cc(C)c1C1C(=O)CC(CCNC(=O)c2ccccn2)C1=O (stereo not shown) [Compound A124] | 100 | 100 | 100 | 100 |
| Cc1cc(Br)cc(C)c1C1C(=O)CC(CCNC(=O)c2ccccn2)C1=O (stereo not shown) [Compound A125] | 100 | 100 | 100 | 100 |
| Cc1cc(OCC(F)(F)F)cc(C)c1C1C(=O)CC(CCNC(=O)c2ccccn2)C1=O (stereo not shown) [Compound A126, N-[2-[3-[2,6-dimethyl-4-(2,2,2-trifluoroethoxy)phenyl]-2,4-dioxo-cyclopentyl]ethyl]pyridine-2-carboxamide] | 100 | 100 | 100 | 100 |
| Cc1cc(Oc2ncc(Cl)cc2F)cc(C)c1C1C(=O)CC(CCNC(=O)c2ccccn2)C1=O (stereo not shown) [Compound A126A] | 90 | 90 | 90 | 90 |
